Reference: patent publication US12247106B2, “Onium-functionalized siloxanes” (Henkel AG & Co. KGaA, priority 2019, dated 2025)

How the values were obtained:
Test in all cases: Kirby-Bauer Test (Zone of Inhibition), agar diffusion
Format in all cases: cell-based
[1] = system: Aspergillus brasiliensis (ATCC 16404)
Description: (§1) Kirby-Bauer Test (Zone of Inhibition):
(§2) The Kirby-Bauer Test is also known as Agar Diffusion Test and can be used for determination of antimicrobial activity in combination with diffusion properties. […] A suspension of the bacterial or fungal strain of interest is spread evenly over the face of a sterile agar plate. The antimicrobial test substrate (preferential liquid aggregation state) is applied to the center of the agar plate onto a small filter paper. The agar plate is incubated for a defined time at a temperature suitable for the test microorganisms. If the test substrate leaches from the filter paper into the agar and it further contains antimicrobial activity, a zone of inhibition is formed around the filter paper.

[2] = system: Staphylococcus aureus (ATCC 6538)
Description: as §1, §2

[3] = system: Exophiala dermatitidis (isolate)
Description: as §1, §2

[4] = dilution ratio 1:10, maximum 45 mm
[5] = dilution ratio 1:100, maximum 45 mm

| SMILES | Zone of Inhibition ([1]; undiluted, maximum 45 mm) | Zone of Inhibition ([2]; undiluted, maximum 45 mm) | Zone of Inhibition ([3]; undiluted, maximum 45 mm) | Zone of Inhibition [1, 4] | Zone of Inhibition [1, 5] | Zone of Inhibition [2, 4] | Zone of Inhibition [2, 5] | Zone of Inhibition [3, 4] | Zone of Inhibition [3, 5] |
| --- | --- | --- | --- | --- | --- | --- | --- | --- | --- |
| CCCCn1ccnc1 [1-Butyl-1H-imidazole] | 5.0 mm | 11.0 mm | 15.0 mm | – | – | – | – | – | – |
| Cn1ccnc1 [1-methyl-1H-imidazole] | 3.5 mm | 6.5 mm | 12.3 mm | 0.0 mm | 0.0 mm | 0.0 mm | 0.0 mm | 0.0 mm | 0.0 mm |
| c1ccncc1 [Pyridine] | 0.0 mm | 1.0 mm | 1.0 mm | 0.0 mm | 0.0 mm | 0.0 mm | 0.0 mm | 0.0 mm | 0.0 mm |
